# According to patent publication US6498145B1, “Use of purified SDG as a hypotensive (vasodilator) agent” (University of Saskatchewan Technologies Incorporated, priority 2000, dated 2002):
# Legend:
# Assay type in all cases: in vivo, rat
# [1] = tested on: anesthetized normotensive rats; experiment: Hypotensive effect of SDG after premedication with blockers/inhibitors in anesthetized normotensive rats
# Description: FIG. 5 is a graph showing changes in the mean arterial blood pressure (B.P.) with SDG (20 mg/kg, intravenously) in the absence or presence of methylene blue (MB) (0.5 mg/kg); methylene blue was given 15 minutes prior to administration of SDG and results are expressed as mean±S.E. *p<0.05, comparison of values at various times with respect to “0” time.
# FIG. 9 is a graph showing effects of SDG in the absence or presence of pyrilamine on the mean arterial blood pressure (B.P.) in anesthetized normotensive rats. Pyrilamine was given 15 minutes before administration of SDG. The results are expressed as mean±S.E. *p<0.05, comparison of values at various times with respect to “0” time.
# Heart rate was not affected by methylene blue (FIG. 8).
# [2] = tested on: angiotensin II receptor; experiment: Angiotensin II response on arterial pressure before and after SDG; conditions: SDG 10 mg/kg intravenously
# Description: To determine if the SDG-induced fall in the blood pressure is mediated through the blockade of angiotensin II receptor, experiments were carried out in normotensive Sprague-Dawley rats. Effects of angiotensin II (0.2 μg/kg, I.V.) given before and after 15 minutes, 30 minutes and 60 minutes of SDG (10 mg/kg) administered intravenously were investigated on the arterial pressure of six anesthetized Sprague-Dawley rats. […] The response of angiotensin II on the mean arterial pressure in untreated rats remained unaltered.
# [3] = tested on: angiotensin converting enzyme (ACE); experiment: Angiotensin I-induced rise in blood pressure before and after SDG; conditions: SDG 10 mg/kg intravenously
# Description: Further experiments were conducted to determine if the SDG-induced fall in the blood pressure is mediated through inhibition of angiotensin converting enzyme (ACE). Angiotensin I is converted to angiotensin II which is vasoconstrictor and raises blood pressure. If SDG lowers blood pressure by inhibiting ACE, then SDG would reduce/prevent the angiotensin I-induced rise in the blood pressure. Experiments were conducted in six normotensive Sprague-Dawley rats. […] However, the effects of angiotensin on arterial pressure of untreated rats remained unaltered. SDG (10 mg/kg) produced a marked fall in the mean arterial pressure.
# [4] = tested on: anesthetized spontaneous hypertensive rats; experiment: Blood pressure of anesthetized spontaneous hypertensive rats, SDG orally; conditions: SHR, 100 mg/kg orally
# Description: (iii) Effects of SDG (100 mg/kg body wt.) given orally were investigated on the blood pressure of anesthetized spontaneous hypertensive rats for four hours. The blood pressures began falling at 15 minutes of SDG administration and maximum fall occurred after three hours. The decreases were of similar magnitude for systolic, diastolic and mean arterial pressures. The systolic, diastolic and mean arterial pressures respectively were 243 mmHg, 176 mmHg and 198 mmHg before administration of SDG. SDG reduced the blood pressure by approximately 25%.
# [5] = tested on: anesthetized spontaneous hypertensive rats (SHR); experiment: Blood pressure of anesthetized spontaneous hypertensive rats, SDG intravenously
# Description: (§1) The effects of SDG on the arterial pressure of anesthetized spontaneous hypertensive rats (SHR) were investigated to determine (a) if it is effective in lowering blood pressure to the same extent as in normotensive Sprague-Dawley rats; (b) if it is effective when given by intraperitoneal route; (c) if the effect is dose-dependent.
# (i) Effects of SDG in the doses of 1 mg, 3 mg and 15 mg/kg given intravenously were investigated on the blood pressures of anesthetized spontaneous hypertensive rats (SHR). The maximum fall in the blood pressure occurred between 15 to 30 minutes of SDG administration after which the blood pressure tended to recover. However, the recovery was short lived. The percent decreases in blood pressures at 30 minutes after SDG were 19, 25 and 31 respectively with 1 mg, 3 mg and 15 mg/kg of SDG. At the end of 4 hours of SDG treatment, the percent decreases were 34, 43 and 36 respectively with 1 mg, 3 mg and 15 mg dose. The fall in the blood pressure initially (at 15 minutes) was maximum with high dose of SDG.
# [6] = tested on: anesthetized normotensive rats; experiment: Blood pressure and heart rate of anesthetized normotensive rats, SDG intravenously; conditions: for maximum fall in mean B.P.: 15 minutes after administration
# Description: The effects of SDG in the doses of 10 mg, 15 mg, 20 mg and 30 mg/kg given intravenously were investigated on the blood pressure (B.P.) and heart rate of anesthetized normotensive rats. The number of rats used were 8, 3, 9, and 3 respectively for the doses of SDG (10 mg, 15 mg, 20 mg and 30 mg/kg body wt.). The maximum fall in mean B.P. were approximately 38%, 29%, 46% and 57% with 10 mg, 15 mg, 20 mg and 30 mg/kg dose of SDG respectively at 15 minutes after administration of SDG. After 15 minutes the blood pressure tended to recover but the recovery was not complete. The mean blood pressure at the end of three hours after SDG administration were approximately 25% lower than control values. The changes in the systolic and diastolic pressure were similar to the mean blood pressure with various doses of SDG. […] One would expect a very long duration of hypotensive effect when SDG is given orally.
# [7] = tested on: anesthetized spontaneous hypertensive rats (SHR); experiment: Blood pressure of anesthetized spontaneous hypertensive rats, SDG intraperitoneally; conditions: for maximum fall in the blood pressure: 30 minutes; for percent decrease in blood pressures: end of four hours
# Description: as §1
# (ii) Effects of SDG in the doses of 5 mg, 10 mg, 50 mg and 200 mg/kg given intraperitoneally were investigated on blood pressure of anesthetized SHR for four hours. The maximum fall in the blood pressure were approximately 7, 37, 50 and 48% respectively with 5 mg, 10 mg, 50 mg and 200 mg of SDG at 30 minutes. At the end of four hours of SDG administration the percent decreases in blood pressures were 31, 42, 39 and 37 respectively with these four doses of SDG.
# [8] = normotensive Sprague-Dawley rats
compound,measurement,setting,value
"COc1cc(C[C@@H](CO[C@@H]2O[C@H](CO)[C@@H](O)[C@H](O)[C@H]2O)[C@H](CO[C@@H]2O[C@H](CO)[C@@H](O)[C@H](O)[C@H]2O)Cc2ccc(O)c(OC)c2)ccc1O [SDG, secoisolariciresinol diglucoside]",hypotensive effect of SDG after premedication with NG-monomethyl-L-arginine,[1]; NG-monomethyl-L-arginine (inhibitor of nitric oxide synthase),not prevented
same,hypotensive effect of SDG in presence of methylene blue,"[1]; SDG 20 mg/kg intravenously, methylene blue 0.5 mg/kg 15 minutes prior",completely prevented
same,heart rate in presence of pyrilamine,[1]; SDG with pyrilamine,practically unchanged
same,hypotensive effect of SDG after premedication with atropine,[1]; atropine (acetylcholine receptor blocker),not prevented
same,hypotensive effect of SDG after premedication with indomethacin,[1]; indomethacin (inhibitor of cyclooxygenase),not prevented
same,hypotensive effect of SDG in presence of pyrilamine,[1]; pyrilamine (histamine receptor blocker) 15 minutes before SDG,partly prevented
same,mean arterial pressure,[2]; [8],reduced the mean arterial pressure
same,angiotensin II response on arterial pressure,"[2]; angiotensin II 0.2 μg/kg I.V., 15, 30, 60 minutes",moderately reduced
same,mean arterial pressure,[3]; [8],marked fall
same,response of angiotensin I on the mean arterial pressure,"[3]; angiotensin I 0.2 μg/kg intravenously, Sprague-Dawley rats, 60 minutes",marked reduction
same,time at which blood pressures began falling,[4],15 min
same,reduction of blood pressure,"[4]; observed for four hours, systolic, diastolic and mean similar",approximately 25%
same,percent decrease in blood pressures,"[5]; 1 mg/kg intravenously, 30 minutes after SDG",19%
same,percent decrease in blood pressures,"[5]; 1 mg/kg intravenously, end of 4 hours",34%
same,percent decrease in blood pressures,"[5]; 3 mg/kg intravenously, 30 minutes after SDG",25%
same,percent decrease in blood pressures,"[5]; 3 mg/kg intravenously, end of 4 hours",43%
same,percent decrease in blood pressures,"[5]; 15 mg/kg intravenously, 30 minutes after SDG",31%
same,percent decrease in blood pressures,"[5]; 15 mg/kg intravenously, end of 4 hours",36%
same,time of maximum fall in the blood pressure,[5]; 1-15 mg/kg intravenously,15 to 30 min
same,maximum fall in mean B.P.,"[6]; 10 mg/kg intravenously, normotensive rats",approximately 38%
same,maximum fall in mean B.P.,"[6]; 15 mg/kg intravenously, normotensive rats",~29%
same,maximum fall in mean B.P.,"[6]; 20 mg/kg intravenously, normotensive rats",~46%
same,maximum fall in mean B.P.,"[6]; 30 mg/kg intravenously, normotensive rats",~57%
same,heart rate,"[6]; any dose (10-30 mg/kg intravenously), normotensive rats",not significantly altered
same,mean blood pressure lower than control values,"[6]; end of three hours after SDG administration, 10-30 mg/kg intravenously",approximately 25%
same,maximum fall in the blood pressure,[7]; 5 mg/kg intraperitoneally,approximately 7%
same,percent decrease in blood pressures,[7]; 5 mg/kg intraperitoneally,31%
same,maximum fall in the blood pressure,[7]; 10 mg/kg intraperitoneally,~37%
same,percent decrease in blood pressures,[7]; 10 mg/kg intraperitoneally,42%
same,maximum fall in the blood pressure,[7]; 50 mg/kg intraperitoneally,~50%
same,percent decrease in blood pressures,[7]; 50 mg/kg intraperitoneally,39%
same,maximum fall in the blood pressure,[7]; 200 mg/kg intraperitoneally,~48%
same,percent decrease in blood pressures,[7]; 200 mg/kg intraperitoneally,37%
